According to patent US20140249147A1, “Substituted Bicyclic Aza-Heterocycles and Analogues as Sirtuin Modulators” (GlaxoSmithKline, LLC, priority 2011, published 2014):

Assays:
SIRT1 [1] = target: T1, SIRT1 (Homo sapiens, UniProt Q96EB6); test: Trp mass spectrometry assay of SIRT1 activation; format: biochemical; conditions: Trp peptide substrate; for TYP EC1.5 (μM): concentration giving 150% activation of SIRT1; for TYP % Fold Act: percent maximum fold activation relative to control (100%)
T1 sequence (Q96EB6 1-747): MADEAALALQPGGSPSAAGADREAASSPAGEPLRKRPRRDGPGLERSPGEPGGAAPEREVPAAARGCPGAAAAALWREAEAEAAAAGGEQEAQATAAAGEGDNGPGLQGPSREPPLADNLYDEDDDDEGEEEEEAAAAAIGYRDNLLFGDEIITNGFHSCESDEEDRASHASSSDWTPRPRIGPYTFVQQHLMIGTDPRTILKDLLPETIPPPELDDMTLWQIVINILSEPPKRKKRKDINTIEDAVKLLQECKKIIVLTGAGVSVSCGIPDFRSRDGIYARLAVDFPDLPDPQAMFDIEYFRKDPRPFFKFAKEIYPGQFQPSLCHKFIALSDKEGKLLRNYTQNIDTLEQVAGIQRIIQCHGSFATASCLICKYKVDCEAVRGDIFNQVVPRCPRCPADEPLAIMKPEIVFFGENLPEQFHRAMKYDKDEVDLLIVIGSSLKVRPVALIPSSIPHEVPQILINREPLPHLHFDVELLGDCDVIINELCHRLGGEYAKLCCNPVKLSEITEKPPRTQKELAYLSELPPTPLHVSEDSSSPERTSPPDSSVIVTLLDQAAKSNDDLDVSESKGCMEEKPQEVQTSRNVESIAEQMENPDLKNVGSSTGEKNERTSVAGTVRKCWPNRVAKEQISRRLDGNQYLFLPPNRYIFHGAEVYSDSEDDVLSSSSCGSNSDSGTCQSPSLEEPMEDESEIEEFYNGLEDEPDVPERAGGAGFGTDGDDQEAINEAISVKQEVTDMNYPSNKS
Excerpt: (§1) Mass spectrometry based assays were used to identify modulators of SIRT1 activity. The TAMRA based assay utilized a peptide having 20 amino acid residues as follows: Ac-EE-K(biotin)-GQSTSSHSK(Ac)NleSTEG-K(5TMR)-EE-NH2 (SEQ ID NO: 1), wherein K(Ac) is an acetylated lysine residue and Nle is a norleucine. The peptide was labeled with the fluorophore 5TMR (excitation 540 nm/emission 580 nm) at the C-terminus. The sequence of the peptide substrate was based on p53 with several modifications. In addition, the methionine residue naturally present in the sequence was replaced with the norleucine because the methionine may be susceptible to oxidation during synthesis and purification. The Trp based assay utilized a peptide having an amino acid residues as follows: Ac—R—H—K—K(Ac)—W—NH2 (SEQ ID NO: 2).
The Trp mass spectrometry assay was conducted as follows. 0.5 μM peptide substrate and 120 μM βNAD^+ were incubated with 10 nM SIRT1 for 25 minutes at 25° C. in a reaction buffer (50 mM HEPES pH 7.5, […], 1 mM DTT, 0.05% BSA). The SIRT1 protein was obtained by cloning the SirT 1 gene into a T7-promoter containing vector, which was then expressed in BL21(DE3) bacterial cells and purified as described in further detail below. Test compound was added at varying concentrations to this reaction mixture and the resulting reactions were monitored. After the 25 minute incubation with SIRT1, 10 μL of 10% formic acid was added to stop the reaction. The resulting reactions were sealed and frozen for later mass spec analysis. The relative SIRT1 activity was then determined by measuring the amount of O-acetyl-ADP-ribose (OAADPR) formed (or, alternatively, the amount of deacetylated Trp peptide generated) by the NAD-dependent sirtuin deacetylation reaction in the presence of varying concentrations of the test compound versus control reactions lacking the test compound. The degree to which the test agent activated deacetylation by SIRT1 was expressed as EC1.5 (i.e., the concentration of compound required to increase SIRT1 activity by 50% over the control lacking test compound), and Percent Maximum Activation (i.e., the maximum activity relative to control (100%) obtained for the test compound).
(§2) A control for inhibition of sirtuin activity was conducted by adding 1 μL of 500 mM nicotinamide as a negative control at the start of the reaction (e.g., permits determination of maximum sirtuin inhibition). A control for activation of sirtuin activity was conducted using 10 nM of sirtuin protein, with 1 μL of DMSO in place of compound, to determine the amount of deacetylation of the substrate at a given time point within the linear range of the assay. This time point was the same as that used for test compounds and, within the linear range, the endpoint represents a change in velocity. For the above assay, SIRT1 protein was expressed and purified as follows. The SirT1 gene was cloned into a T7-promoter containing vector and transformed into BL21(DE3). The protein was expressed by induction with 1 mM IPTG as an N-terminal His-tag fusion protein at 18° C. overnight and harvested at 30,000×g. Cells were lysed with lysozyme in lysis buffer (50 mM Tris-HCl, 2 mM Tris[2-carboxyethyl]phosphine (TCEP), 10 μM ZnCl2, 200 mM NaCl) and further treated with sonication for 10 min for complete lysis. The protein was purified over a Ni-NTA column (Amersham) and fractions containing pure protein were pooled, concentrated and run over a sizing column (Sephadex S200 26/60 global). The peak containing soluble protein was collected and run on an Ion-exchange column (MonoQ). Gradient elution (200 mM-500 mM NaCl) yielded pure protein. This protein was concentrated and dialyzed against dialysis buffer (20 mM Tris-HCl, 2 mM TCEP) overnight. The protein was aliquoted and frozen at −80° C. until further use.
Sirtuin-modulating compounds of Formula (I) that activated SIRT1 were identified using the assay described above and are shown below in Table 1. […]

SIRT1 [2] = target: T1, SIRT1; test: TAMRA based mass spectrometry assay of SIRT1 activation; format: biochemical; conditions: TAMRA peptide substrate; for Emax: 25 min, percent maximum fold activation relative to control (100%), read-out: TAMRA % Fold Act; for TAMRA EC1.5 (μM): concentration giving 150% activation of SIRT1
Excerpt: as §1
The TAMRA based mass spectrometry assay was conducted as follows: 0.5 μM peptide substrate and 120 μM βNAD^+ was incubated with 10 nM SIRT1 for 25 minutes at 25° C. in a reaction buffer (50 mM Tris-acetate pH 8, 137 mM NaCl, 2.7 mM KCl, 1 mM MgCl2, 5 mM DTT, 0.05% BSA). The SIRT1 protein was obtained by cloning the SirT1 gene into a T7-promoter containing vector, which was then transformed and expressed in BL21(DE3) bacterial cells. Test compound was added at varying concentrations to this reaction mixture and the resulting reactions were monitored. After the 25 minute incubation with SIRT1, 10 μL of 10% formic acid was added to stop the reaction. The resulting reactions were sealed and frozen for later mass spec analysis. Determination of the amount of deacetylated substrate peptide formed (or, alternatively, the amount of O-acetyl-ADP-ribose (OAADPR) generated) by the sirtuin-mediated NAD-dependent deacetylation reaction allowed for the precise measurement of relative SIRT1 activity in the presence of varying concentrations of the test compound versus control reactions lacking the test compound.
as §2
Sirtuin-modulating compounds of Formula (I) that activated SIRT1 were identified using the assay described above and are shown below in Table 1. The EC1.5 values represent the concentration of test compounds that result in 150% activation of SIRT1. The EC1.5 values for the activating compounds of Formula (I) are represented by A (EC1.5<1 μM), B (EC1.5 1-25 μM), C (EC1.5>25 μM). […]

Compound | TYP EC1.5 (μM) (SIRT1 [1]) | TYP % Fold Act (SIRT1 [1]) | Emax (SIRT1 [2]) | TAMRA EC1.5 (μM) (SIRT1 [2])
O=C(Nc1ccc2ncc(-c3cccc(C(F)(F)F)c3)n2n1)c1ncccn1 [Compound 39] | C (EC1.5>25 μM) | B (Fold Activation <350%) | – | –
O=C(Nc1ccccn1)c1ccc2nnc(-c3cccc(N4CCOCC4)c3)n2n1 [Compound 4] | C (EC1.5>25 μM) | B (Fold Activation <350%) | < 350% | C (EC1.5>25 μM)
O=C(Nc1nccs1)c1ccc2nnc(-c3cccc(N4CCOCC4)c3)n2n1 [Compound 5, 3-(3-morpholinophenyl)-N-(thiazol-2-yl)-[1,2,4]triazolo[4,3-b]pyridazine-6-carboxamide] | C (EC1.5>25 μM) | B (Fold Activation <350%) | < 350% | C (EC1.5>25 μM)
Cc1cc(C)nc(NC(=O)c2ccc3nnc(-c4cccc(C(F)(F)F)c4)n3n2)c1 [Compound 8] | – | B (Fold Activation <350%) | < 350% | –
O=C(Nc1ccc2ncc(-c3cccc(F)c3)n2n1)c1ncccn1 [Compound 16] | C (EC1.5>25 μM) | B (Fold Activation <350%) | < 350% | C (EC1.5>25 μM)
O=C(Nc1cccc(N2CCOCC2)n1)c1ccc2ncc(-c3cccc(F)c3)n2n1 [Compound 38] | C (EC1.5>25 μM) | B (Fold Activation <350%) | < 350% | C (EC1.5>25 μM)
O=C(Nc1ccc2ncc(-c3cccc(C(F)(F)F)c3)n2n1)c1cnccn1 [Compound 14] | C (EC1.5>25 μM) | B (Fold Activation <350%) | < 350% | C (EC1.5>25 μM)
O=C(Nc1ccc2ncc(-c3ccccc3Cl)n2n1)c1cnccn1 [Compound 15] | C (EC1.5>25 μM) | B (Fold Activation <350%) | < 350% | C (EC1.5>25 μM)
O=C(Nc1ccc2ncc(-c3ccccc3F)n2n1)c1ccccn1 [Compound 23] | C (EC1.5>25 μM) | B (Fold Activation <350%) | < 350% | C (EC1.5>25 μM)
O=C(Nc1ccc2ncc(-c3ccccc3F)n2n1)c1nccs1 [Compound 22] | C (EC1.5>25 μM) | B (Fold Activation <350%) | < 350% | C (EC1.5>25 μM)
O=C(Nc1cccc(C(F)(F)F)n1)c1ccc2nnc(-c3cccc(Cl)c3)n2n1 [Compound 6] | – | B (Fold Activation <350%) | < 350% | –
O=C(Nc1nccs1)c1ccc2nnc(-c3cccc(OC(F)(F)F)c3)n2n1 [Compound 1, N-(thiazol-2-yl)-3-(3-(trifluoromethoxy)phenyl)-[1,2,4]triazolo[4,3-b]pyridazine-6-carboxamide] | B (EC1.5 1-25 μM) | B (Fold Activation <350%) | < 350% | C (EC1.5>25 μM)
O=C(Nc1cccc(N2CCOCC2)n1)c1ccc2ncc(-c3cccc(C(F)(F)F)c3)n2n1 [Compound 48] | A (EC1.5<1 μM) | B (Fold Activation <350%) | ≥ 350% | A (EC1.5<1 μM)
